Experimental data as given in patent publication US12064445B2, “Cytarabine conjugates for cancer therapy” (Biosight Ltd., priority 2015, dated 2024).

Assays:
RPMI8226 (Human myeloma) = experiment: MTT assay, IC50 in tumor cell lines; assay type: cell-based; conditions: RPMI-8226, RPMI8226, 72 hr
Procedure: The effect of Astarabine® on different cell lines was evaluated. Briefly, various cell lines were obtained from ATCC or ECACC. Hematological cells were grown in RPMI medium containing 10-20% FBS and 1% glutamine. Solid tumor cells were grown in DMEM medium containing 10-20% FBS and 1% glutamine. Cells were seeded into 96-well plates, 50,000 cells/ml, 0.2 ml per well. […] The study was conducted in triplicates, PBS was used as control. Plates were incubated for 72 hr at 37° C., 5% CO2. At the end of the exposure period, a MTT assay using the MTT reagent [3-(4,5-dimethylthiazol-2-yl)-2,5-diphenyltetrazolium bromide] was performed. MTT was added to each well at a concentration of 5 mg/ml in a volume of 0.02 ml. Plates were incubated at 37° C. for 3 h. The plates were centrifuged at 3500 rpm for 5 minutes and the supernatant was aspired. The pellets which contained MTT crystals were each dissolved in 0.2 ml DMSO. Absorbance was determined using ELISA reader at a wavelength of 570 nm.

[1] = system: human leukemia cell lines; experiment: Astarabine metabolite assay in human leukemia cell lines; assay type: cell-based
[2] = system: CCRF-CEM (Human acute lymphoblastic leukemia T lympoblastoid line); experiment: MTT assay, IC50 in tumor cell lines; assay type: cell-based; conditions: 72 hr
Procedure: (§1) The effect of Astarabine® on different cell lines was evaluated. Briefly, various cell lines were obtained from ATCC or ECACC. Hematological cells were grown in RPMI medium containing 10-20% FBS and 1% glutamine. Solid tumor cells were grown in DMEM medium containing 10-20% FBS and 1% glutamine. Cells were seeded into 96-well plates, 50,000 cells/ml, 0.2 ml per well. Test substances were diluted in saline or PBS and added in final concentrations of 0.1 nM to 10 μM, in a volume of 20 μl. The study was conducted in triplicates, PBS was used as control. Plates were incubated for 72 hr at 37° C., 5% CO2. At the end of the exposure period, a MTT assay using the MTT reagent [3-(4,5-dimethylthiazol-2-yl)-2,5-diphenyltetrazolium bromide] was performed. MTT was added to each well at a concentration of 5 mg/ml in a volume of 0.02 ml. Plates were incubated at 37° C. for 3 h. The plates were centrifuged at 3500 rpm for 5 minutes and the supernatant was aspired. The pellets which contained MTT crystals were each dissolved in 0.2 ml DMSO. Absorbance was determined using ELISA reader at a wavelength of 570 nm.

[3] = system: A2780 (Human ovarian carcinoma); experiment: MTT assay, IC50 in tumor cell lines; assay type: cell-based; conditions: A2780, 72 hr
Procedure: as §1

[4] = system: L1210 (Mouse DBA/2 lymphocytic leukemia); experiment: MTT assay, IC50 in tumor cell lines; assay type: cell-based; conditions: L1210, 72 hr
Procedure: as §1

[5] = system: HepG2 (Human hepatocellular carcinoma); experiment: MTT assay, IC50 in tumor cell lines; assay type: cell-based; conditions: HepG2, 72 hr
Procedure: as §1

[6] = system: SU DHL-5 (Human B-cell non Hodgkin's lymphoma); experiment: MTT assay, IC50 in tumor cell lines; assay type: cell-based; conditions: SU DHL-5, 72 hr
Procedure: as §1

[7] = system: SU DHL-1 (Human large cell lymphoma); experiment: MTT assay, IC50 in tumor cell lines; assay type: cell-based; conditions: SU DHL-1, 72 hr
Procedure: as §1

[8] = system: Molt-4 (Human acute lymphoblastic leukemia); experiment: MTT assay, IC50 in tumor cell lines; assay type: cell-based; conditions: Molt-4, 72 hr
Procedure: as §1

[9] = system: NCIH727 (Human lung non small cell carcinoma); experiment: MTT assay, IC50 in tumor cell lines; assay type: cell-based; conditions: NCI-H727, NCIH727, 72 hr
Procedure: as §1

[10] = system: Kasumi-1 (Human acute myeloblastic leukemia); experiment: MTT assay, IC50 in tumor cell lines; assay type: cell-based; conditions: Kasumi-1, 72 hr
Procedure: as §1

[11] = system: RS 4:11 (Human acute lymphoblastic leukemia); experiment: MTT assay, IC50 in tumor cell lines; assay type: cell-based; conditions: RS4-11, RS 4:11, 72 hr
Procedure: as §1

[12] = system: P388.D1 (Mouse lymphoid macrophage); experiment: MTT assay, IC50 in tumor cell lines; assay type: cell-based; conditions: P388D1, P388.D1, 72 hr
Procedure: as §1

[13] = system: THP-1 (Human monocytic leukemia); experiment: MTT assay, IC50 in tumor cell lines; assay type: cell-based; conditions: THP-1, 72 hr
Procedure: as §1

[14] = system: CCRF-SB (Human acute lymphoblastic leukemia); experiment: MTT assay, IC50 in tumor cell lines; assay type: cell-based; conditions: 72 hr
Procedure: as §1

[15] = system: K562 (Human chronic myelogenous leukemia); experiment: MTT assay, IC50 in tumor cell lines; assay type: cell-based; conditions: K562, 72 hr
Procedure: as §1

[16] = system: HL-60 (Human promyelocytic leukemia); experiment: MTT assay, IC50 in tumor cell lines; assay type: cell-based; conditions: HL-60, 72 hr
Procedure: as §1

[17] = system: MEG 01 (Human chronic myelogenous leukemia); experiment: MTT assay, IC50 in tumor cell lines; assay type: cell-based; conditions: MEG 01, 72 hr
Procedure: as §1

[18] = Maximal tolerated dose, single dose IP in mice; assay type: in vivo
Procedure: Ten weeks of age IRC mice were injected IP with a single dose of Astarabine®, ranging from 1428 to 8271 mg/kg (50 to 300 mg/mice, respectively). Clinical evaluation included mobility observations, food and water consumption. […] After 7 days, the mice were sampled for hematology and biochemistry and then subjected to necropsy.

[19] = ICR, mouse, in vivo
Procedure: In vivo tolerability/toxicology studies were used to determine the MTD of a single dose of Astarabine® in mice (FIG. 1A) or of 14 daily repeated doses of Astarabine® in mice (FIG. 1B). The MTD was evaluated for intravenous (IV) or intraperitoneal (IP) administration.

[20] = Maximal tolerated dose, single dose IV in mice; assay type: in vivo
Procedure: IRC mice were injected once IV with Astarabine® in a dose ranging from 1000 to 8000 mg/kg. The mice were evaluated for 14 days. […] The following parameters: clinical signs, body weight, food consumption and blood analysis, were normal for both male and female mice at this dose, i.e., 8000 mg/kg. […] It is therefore concluded that 8000 mg/kg is the MTD of Astarabine® in mice for a single IV administration.

In the case of `N[C@@H](CC(=O)Nc1ccn([C@@H]2O[C@H](CO)[C@@H](O)[C@@H]2O)c(=O)n1)C(=O)O` [Astarabine®], the IC50 (RPMI8226 (Human myeloma)) is reported as 33.4 to 144 µM, the “Metabolites detected in cells” value [1] is reported as “detected free cytarabine metabolites” and the IC50 [2] is reported as 0.0233 to 0.0408 µM. For the same compound, the IC50 [3] was 0.457 µM, the IC50 [4] was 0.0394 to 0.116 µM and the IC50 [5] was 7 to 7.5 µM. It also gave an IC50 [6] of 0.196 µM, an IC50 [7] of 0.314 to 0.335 µM and an IC50 [8] of 0.004 to 0.024 µM. For the same compound, the IC50 [9] was 1.3 to 2.8 µM, the IC50 [10] was 7.6 µM and the IC50 [11] was 0.0271 µM. The IC50 [12] was 1.9 to 2.6 µM, the IC50 [13] was 7.1 to 52 µM and the IC50 [14] was 11 to 21.4 µM. For the same compound, the IC50 [15] was 0.194 to 0.516 µM, the IC50 [16] was 0.256 to 0.276 µM and the IC50 [17] was 1.7 µM. For the same compound, the MTD at 7 days ([18]; IRC, mouse, in vivo, single dose IP) was 8270 mg/kg, the “Blood samples (hematology and biochemistry)” value ([18]; single IP dose 8271 mg/kg, after 7 days of recovery) was “normal results” and the “Necropsy, tissues” value ([18]; single IP dose 1428 to 8271 mg/kg, all mice) was “normal, with no macroscopic findings”. The “Reduction of toxicity in animals compared to the reported toxicity of cytarabine” value [19] was 10-20 fold, the MTD at 14 days ([20]; both sexes, IRC, mouse, in vivo, single IV administration, evaluated for 14 days) was 8000 mg/kg and the Drug dependent death ([20]; single IV dose 8000 mg/kg) was “no drug dependent death”.
